Results reported in patent publication US10770169B2, “Method of providing a treatment to a subject based on a dynamic pathway map” (THE REGENTS OF THE UNIVERSITY OF CALIFORNIA, priority 2010, dated 2020).
Where two headings read alike, the source gives them in different places.

Assays:
[1] = test system: luminal, basal, claudin-low and ERBB2AMP breast cancer cell lines; assay: Associations of clinically relevant subtypes and response (non-parametric ANOVA or t-test on GI50 ranks); format: cell-based, human
Outline: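 GI50 values were compared between cell-line subtype groups by non-parametric ANOVA or t-test on ranks. P-values from three test sets were combined and FDR-corrected. Significant three-group effects were followed by post-hoc comparison of each group against all others, and FDR p<0.20 counted as significant.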

[2] = test system: panel of 55 breast cancer cell lines; assay: Cell growth inhibition assay (Cell Titer Glo, 72 h, 9 doses; GI50, TGI, LC50); format: cell-based, human; details: Homo sapiens, read-out: GI50 (converted)

## COc1cc([C@@H]2c3cc4c(cc3[C@@H](O[C@@H]3O[C@@H]5CO[C@@H](C)O[C@H]5[C@H](O)[C@H]3O)[C@H]3COC(=O)[C@H]23)OCO4)cc(OC)c1O [Etoposide]
[1]; GI50 across subtypes
  subtype-specific response (sensitivity by transcriptional subtype): preferential activity in basal and/or claudin-low cell lines
[1]; Table 6, most sensitive subtype, FDR p<0.20
  Subtype specificity: Claudin-low
[2]; 600MPE cell line, censored GI50 values
  GI50: 9.77 µM
[2]; AU565, AU565 cell line, censored GI50 values
  GI50: 0.676 µM
[2]; AU565, cell line AU565
  GI50: 0.676 µM
[2]; BT-20, BT20 cell line, censored GI50 values
  GI50: 3.31 µM
[2]; BT-20, cell line BT20
  GI50: 3.31 µM
[2]; BT-474, BT474 cell line, censored GI50 values
  GI50: 19.1 µM
[2]; BT-474, cell line BT474
  GI50: 19.1 µM
[2]; BT-483, BT483 cell line, censored GI50 values
  GI50: 4.27 µM
[2]; BT-483, cell line BT483
  GI50: 4.27 µM
[2]; BT-549, BT549 cell line, censored GI50 values
  GI50: 1.38 µM
[2]; BT-549, cell line BT549
  GI50: 1.38 µM
[2]; CAMA-1, CAMA1 cell line, censored GI50 values
  GI50: 5.01 µM
[2]; CAMA-1, cell line CAMA1
  GI50: 5.01 µM
[2]; HCC38, HCC38 cell line, censored GI50 values
  GI50: 0.295 µM
[2]; HCC38, cell line HCC38
  GI50: 0.295 µM
[2]; HCC70, HCC70 cell line, censored GI50 values
  GI50: 12.9 µM
[2]; HCC70, cell line HCC70
  GI50: 12.9 µM
[2]; HCC202, HCC202 cell line, censored GI50 values
  GI50: 0.933 µM
[2]; HCC202, cell line HCC202
  GI50: 0.933 µM
[2]; HCC1143, HCC1143 cell line, censored GI50 values
  GI50: 5.13 µM
[2]; HCC1143, cell line HCC1143
  GI50: 5.13 µM
[2]; HCC1187, HCC1187 cell line, censored GI50 values
  GI50: 0.692 µM
[2]; HCC1187, cell line HCC1187
  GI50: 0.692 µM
[2]; HCC1395, HCC1395 cell line, censored GI50 values
  GI50: 3.09 µM
[2]; HCC1395, cell line HCC1395
  GI50: 3.09 µM
[2]; HCC1419, HCC1419 cell line, censored GI50 values
  GI50: 70.8 µM
[2]; HCC1419, cell line HCC1419
  GI50: 70.8 µM
[2]; HCC1428, HCC1428 cell line, censored GI50 values
  GI50: 34.7 µM
[2]; HCC1428, cell line HCC1428
  GI50: 34.7 µM
[2]; HCC1500, HCC1500 cell line, censored GI50 values
  GI50: 1.41 µM
[2]; HCC1500, cell line HCC1500
  GI50: 1.41 µM
[2]; HCC1806, HCC1806 cell line, censored GI50 values
  GI50: 3.09 µM
[2]; HCC1806, cell line HCC1806
  GI50: 3.09 µM
[2]; HCC1937, HCC1937 cell line, censored GI50 values
  GI50: 4.57 µM
[2]; HCC1937, cell line HCC1937
  GI50: 4.57 µM
[2]; HCC1954, HCC1954 cell line, censored GI50 values
  GI50: 1 µM
[2]; HCC1954, cell line HCC1954
  GI50: 1 µM
[2]; HCC2185 cell line, censored GI50 values
  GI50: 7.76 µM
[2]; HCC3153 cell line, censored GI50 values
  GI50: 2.95 µM
[2]; MCF7, MCF7 cell line, censored GI50 values
  GI50: 11.2 µM
[2]; MCF7, cell line MCF7
  GI50: 11.2 µM
[2]; MDA-MB-134-VI, MDAMB134VI cell line, censored GI50 values
  GI50: 2.45 µM
[2]; MDA-MB-157, MDAMB157 cell line, censored GI50 values
  GI50: 0.955 µM
[2]; MDA-MB-157, cell line MDAMB157
  GI50: 0.955 µM
[2]; MDA-MB-175-VII, MDAMB175VII cell line, censored GI50 values
  GI50: 72.4 µM
[2]; MDA-MB-231, MDAMB231 cell line, censored GI50 values
  GI50: 2.04 µM
[2]; MDA-MB-231, cell line MDAMB231
  GI50: 2.04 µM
[2]; MDA-MB-361, MDAMB361 cell line, censored GI50 values
  GI50: 14.1 µM
[2]; MDA-MB-361, cell line MDAMB361
  GI50: 14.1 µM
[2]; MDA-MB-415, MDAMB415 cell line, censored GI50 values
  GI50: 13.8 µM
[2]; MDA-MB-415, cell line MDAMB415
  GI50: 13.8 µM
[2]; MDA-MB-436, MDAMB436 cell line, censored GI50 values
  GI50: 1 µM
[2]; MDA-MB-436, cell line MDAMB436
  GI50: 1 µM
[2]; MDA-MB-453, MDAMB453 cell line, censored GI50 values
  GI50: 5.01 µM
[2]; MDA-MB-453, cell line MDAMB453
  GI50: 5.01 µM
[2]; MDA-MB-468, MDAMB468 cell line, censored GI50 values
  GI50: 2.57 µM
[2]; MDA-MB-468, cell line MDAMB468
  GI50: 2.57 µM
[2]; SK-BR-3, SKBR3 cell line, censored GI50 values
  GI50: 1.2 µM
[2]; SK-BR-3, cell line SKBR3
  GI50: 1.2 µM
[2]; SUM52PE, SUM52PE cell line, censored GI50 values
  GI50: 2.57 µM
[2]; SUM52PE, cell line SUM52PE
  GI50: 2.57 µM
[2]; SUM149PT, SUM149PT cell line, censored GI50 values
  GI50: 2.63 µM
[2]; SUM149PT, cell line SUM149PT
  GI50: 2.63 µM
[2]; SUM185PE, SUM185PE cell line, censored GI50 values
  GI50: 4.9 µM
[2]; SUM185PE, cell line SUM185PE
  GI50: 4.9 µM
[2]; SUM225CWN, SUM225CWN cell line, censored GI50 values
  GI50: 10.2 µM
[2]; SUM225CWN, cell line SUM225CWN
  GI50: 10.2 µM
[2]; SUM1315MO2, SUM1315MO2 cell line, censored GI50 values
  GI50: 0.288 µM
[2]; SUM-159-PT, SUM159PT cell line, censored GI50 values
  GI50: 0.776 µM
[2]; SUM-159-PT, cell line SUM159PT
  GI50: 0.776 µM
[2]; T47D, T47D cell line, censored GI50 values
  GI50: 1.07 µM
[2]; T47D, cell line T47D
  GI50: 1.07 µM
[2]; UACC-893, UACC893 cell line, censored GI50 values
  GI50: 55 µM
[2]; UACC-893, cell line UACC893
  GI50: 55 µM
[2]; ZR-75-1, ZR751 cell line, censored GI50 values
  GI50: 2.09 µM
[2]; ZR-75-1, cell line ZR751
  GI50: 2.09 µM
[2]; ZR-75B, ZR75B cell line, censored GI50 values
  GI50: 0.871 µM
[2]; ZR-75B, cell line ZR75B
  GI50: 0.871 µM
[2]; cell line 600MPE
  GI50: 9.77 µM
[2]; cell line HCC2185
  GI50: 7.76 µM
[2]; cell line HCC3153
  GI50: 2.95 µM
[2]; cell line MDAMB134V
  GI50: 2.45 µM
[2]; cell line MDAMB175V
  GI50: 72.4 µM
[2]; cell line SUM1315MO
  GI50: 0.288 µM
